What all share (format): biochemical
Assay [1] has as its target T1, Recombinant human MMP14 catalytic domain (Homo sapiens, UniProt P50281).
T1 construct: Recombinant human MMP14 catalytic domain; made in house
Briefly: MMP14 isolated enzyme assay (fluorogenic substrate). The following applies: 60 min, room temperature, read-out: hMMP14 IC50. The procedure: Recombinant human MMP14 catalytic domain may be expressed and purified as described by Parkar A. A. et al, (2000), Protein Expression and Purification, 20, 152. The purified enzyme can be used to monitor inhibitors of activity as follows: MMP14 (10 ng/ml final concentration) is incubated for 60 minutes at room temperature with the synthetic substrate Mca-Pro-Cha-Gly-Nva-His-Ala-Dpa-NH2 (10 μM) in assay buffer (0.1M “Tris-HCl” (trade mark) buffer, pH 7.5 containing 0.1M NaCl, 20 mM CaCl2, 0.020 mM ZnCl and 0.05% (w/v) “Brij 35” (trade mark) detergent) in the presence (5 concentrations) or absence of inhibitors. Activity is determined by measuring the fluorescence at λex 320 nm and λem 405 nm. Percent inhibition is calculated as follows: % Inhibition is equal to the [Fluorescenceplus inhibitor−Fluorescencebackground] divided by the [Fluorescenceminus inhibitor−Fluorescencebackground].

Assay [2] concerns the target T2, Recombinant human MMP9 catalytic domain (Homo sapiens, UniProt P14780).
T2 sequence (P14780 with tags, fused parts or gaps DEL216-390 limits assumed): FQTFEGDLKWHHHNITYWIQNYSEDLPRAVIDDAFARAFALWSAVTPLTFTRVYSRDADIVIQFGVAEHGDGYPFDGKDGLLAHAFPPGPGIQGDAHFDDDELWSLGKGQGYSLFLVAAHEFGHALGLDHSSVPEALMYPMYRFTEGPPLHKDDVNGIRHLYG
Briefly: MMP9 isolated enzyme assay (fluorogenic substrate). The following applies: 30 min, RT, read-out: hMMP9 IC50. The procedure:
Recombinant human MMP9 catalytic domain was expressed and then purified by Zn chelate column chromatography followed by hydroxamate affinity column chromatography. The enzyme can be used to monitor inhibitors of activity as follows: MMP9 (5 ng/ml final concentration) is incubated for 30 minutes at RT with the synthetic substrate Mca-Pro-Cha-Gly-Nva-His-Ala-Dpa-NH2 (5 μM) in assay buffer (0.1M “Tris-HCl” (trade mark) buffer, pH 7.3 containing 0.1M NaCl, 20 mM CaCl2, 0.020 mM ZnCl and 0.05% (w/v) “Brij 35” (trade mark) detergent) in the presence (10 concentrations) or absence of inhibitors. Activity is determined by measuring the fluorescence at […]. Percent inhibition is calculated as follows: % Inhibition is equal to the [Fluorescenceplus inhibitor−Fluorescencebackground] divided by the [Fluorescenceminus inhibitor−Fluorescencebackground]. MMP14

Assay [3] addresses T3, Recombinant human MMP12 catalytic domain (Homo sapiens, UniProt P39900).
T3 construct: Recombinant human MMP12 catalytic domain; made in house
Kind of assay: MMP12 isolated enzyme assay (fluorogenic substrate). The conditions noted are these: 60 min, room temperature, read-out: hMMP12 IC50. The procedure: Recombinant human MMP12 catalytic domain may be expressed and purified as described by Parkar A. A. et al, (2000), Protein Expression and Purification, 20, 152. The purified enzyme can be used to monitor inhibitors of activity as follows: MMP12 (50 ng/ml final concentration) is incubated for 60 minutes at room temperature with the synthetic substrate Mca-Pro-Cha-Gly-Nva-His-Ala-Dpa-NH2 (10 μM) in assay buffer (0.1M “Tris-HCl” (trade mark) buffer, pH 7.3 containing 0.1M NaCl, 20 mM CaCl2, 0.020 mM ZnCl and 0.05% (w/v) “Brij 35” (trade mark) detergent) in the presence (10 concentrations) or absence of inhibitors. Activity is determined by measuring the fluorescence at λex 320 nm and λem 405 nm. Percent inhibition is calculated as follows: % Inhibition is equal to the [Fluorescenceplus inhibitor−Fluorescencebackground] divided by the [Fluorescenceminus inhibitor−Fluorescencebackground]. MMP8

Assay [4] concerns the target T4, hMMP8 (APMA-activated pro-MMP8) (Homo sapiens, UniProt P22894).
T4 construct: purchased Calbiochem
Kind of assay: MMP8 isolated enzyme assay (fluorogenic substrate). The conditions noted are these: 90 min, 35° C. The procedure:
Purified pro-MMP8 is purchased from Calbiochem. The enzyme (at 10 μg/ml) is activated by p-amino-phenyl-mercuric acetate (APMA) at 1 mM for 2.5 h, 35° C. The activated enzyme can be used to monitor inhibitors of activity as follows: MMP8 (200 ng/ml final concentration) is incubated for 90 minutes at 35° C. (80% H2O) with the synthetic substrate Mca-Pro-Cha-Gly-Nva-His-Ala-Dpa-NH2 (12.5 μM) in assay buffer (0.1 M “Tris-HCl” (trade mark) buffer, pH 7.5 containing 0.1M NaCl, 30 mM CaCl2, 0.040 mM ZnCl and 0.05% (w/v) “Brij 35” (trade mark) detergent) in the presence (10 concentrations) or absence of inhibitors. Activity is determined by measuring the fluorescence at λex 320 nm and λem 405 nm. Percent inhibition is calculated as follows: % Inhibition is equal to the [Fluorescenceplus inhibitor−Fluorescencebackground] divided by the [Fluorescenceminus inhibitor−Fluorescencebackground]. MMP9

The target of assay [5] is T5, Recombinant human MMP19 catalytic domain (Homo sapiens, UniProt Q99542).
T5 construct: Recombinant human MMP19 catalytic domain; made in house
T5 sequence (Q99542 98-256 limits assumed): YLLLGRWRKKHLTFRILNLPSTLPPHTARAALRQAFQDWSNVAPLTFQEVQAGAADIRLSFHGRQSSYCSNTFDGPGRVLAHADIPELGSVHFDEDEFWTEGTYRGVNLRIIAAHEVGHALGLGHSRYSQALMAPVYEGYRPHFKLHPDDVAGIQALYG
Briefly: MMP19 isolated enzyme assay (fluorogenic substrate). The following applies: 120 min, 35° C., read-out: hMMP19 IC50. How it is done: Recombinant human MMP19 catalytic domain may be expressed and purified as described by Parkar A. A. et al, (2000), Protein Expression and Purification, 20:152. The purified enzyme can be used to monitor inhibitors of activity as follows: MMP19 (40 ng/ml final concentration) is incubated for 120 minutes at 35° C. with the synthetic substrate Mca-Pro-Leu-Ala-Nva-Dpa-Ala-Arg-NH2 (5 μM) in assay buffer (0.1M “Tris-HCl” (trade mark) buffer, pH 7.3 containing 0.1M NaCl, 20 mM CaCl2, […] ZnCl and 0.05% (w/v) “Brij 35” (trade mark) detergent) in the presence (5 concentrations) or absence of inhibitors. Activity is determined by measuring the fluorescence at λex 320 nm and λem 405 nm. Percent inhibition is calculated as follows: % Inhibition is equal to the [Fluorescenceplus inhibitor−Fluorescencebackground] divided by the [Fluorescenceminus inhibitor−Fluorescencebackground].

T3 sequence (P39900 106-263 limits assumed): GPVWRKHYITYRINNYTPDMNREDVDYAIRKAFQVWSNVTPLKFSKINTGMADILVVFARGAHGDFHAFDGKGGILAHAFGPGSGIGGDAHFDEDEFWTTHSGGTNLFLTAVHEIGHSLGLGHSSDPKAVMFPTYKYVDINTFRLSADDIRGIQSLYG
T4 sequence (P22894 101-467): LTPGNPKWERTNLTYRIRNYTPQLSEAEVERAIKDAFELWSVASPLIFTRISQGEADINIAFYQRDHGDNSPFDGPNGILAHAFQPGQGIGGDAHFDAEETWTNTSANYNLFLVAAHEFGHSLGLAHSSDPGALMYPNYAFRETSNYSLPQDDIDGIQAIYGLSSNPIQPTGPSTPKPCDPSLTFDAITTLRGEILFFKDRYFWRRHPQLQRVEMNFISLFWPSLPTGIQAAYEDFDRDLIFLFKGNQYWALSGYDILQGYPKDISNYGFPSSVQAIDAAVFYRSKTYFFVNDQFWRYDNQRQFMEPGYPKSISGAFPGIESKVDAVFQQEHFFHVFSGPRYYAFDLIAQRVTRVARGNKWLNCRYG

Regarding `C[C@]1(CS(=O)(=O)N2CCc3cc(-c4ccc(C5CC5)nc4)ncc3C2)NC(=O)NC1=O` [Example 2, (5S)-5-({[6-(6-Cyclopropylpyridin-3-yl)-3,4-dihydro-2,7-naphthyridin-2(1H)-yl]sulfonyl}methyl)-5-methylimidazolidine-2,4-dione], the IC50 is above 10000 nM in assay [1], 21.5 nM in assay [2], 26.6 nM in assay [3] and 2470 nM in assay [4].
As for `CC[C@]1(CS(=O)(=O)N2CCc3cc(-c4cnc(C5CC5)nc4)ccc3C2)NC(=O)NC1=O` [Example 5, (5S)-5-({[6-(2-Cyclopropylpyrimidin-5-yl)-3,4-dihydroisoquinolin-2(1H)-yl]sulfonyl}methyl)-5-ethylimidazolidine-2,4-dione], the IC50 is 8810 nM in assay [1]; 3.8 nM in assay [2]; 6.9 nM in assay [3]; 3760 nM in assay [5]; 1310 nM in assay [4].
Turning to `C[C@]1(CS(=O)(=O)N2CCc3cc(-c4cnc(C5CC5)nc4)ccc3C2)NC(=O)NC1=O` [Example 1, (5S)-5-({[6-(2-Cyclopropylpyrimidin-5-yl)-3,4-dihydroisoquinolin-2(1H)-yl]sulfonyl}methyl)-5-methylimidazolidine-2,4-dione], the IC50 in assay [1] is above 10000 nM; in assay [2], 10.1 nM; in assay [3] it was 8.78 nM; in assay [5], above 10000 nM; in assay [4], 3050 nM.

For the origin of these results see patent US7655664B2, “Hydantoin derivatives as metalloproteinase inhibitors” (AstraZeneca AB, priority 2004, dated 2010).
